Experimental data from patent US20240150755A1, “MODULATING REGULATORY T CELL FUNCTION IN AUTOIMMUNE DISEASE AND CANCER” (Salk Institute for Biological Studies, priority 2021, published 2024).

Key:
H3K27ac = H3K27ac ChIP-seq in Treg cells; format: cell-based, mouse; details: sgRNA transduced Treg cells
Protocol: Treg cells were collected and cross-linked first in 3 mM disuccinimidyl glutarate (DSG) in 1×PBS for thirty minutes then in 1% formaldehyde for another ten minutes, both at RT, for chromatin binding protein ChIP or in 1% formaldehyde only for histone modification ChIP. After quenching the excess cross-linker with a final concentration of 125 mM glycine, the cells were washed in 1× PBS, pelleted, flash-frozen in liquid nitrogen, and stored at −80° C. Cell pellets were thawed on ice and incubated in lysis solution (50 mM HEPES-KOH pH 8, 140 mM NaCl, 1 mM EDTA, 10% glycerol, 0.5% NP40, 0.25% Triton X-100) for ten minutes. The isolated nuclei were washed with wash solution (10 mM Tris-HCl pH 8, 1 mM EDTA, 0.5 mM EGTA, 200 mM NaCl) and shearing buffer (0.1% SDS, 1 mM EDTA, 10 mM Tris-HCl pH 8) then sheared in a Covaris® E229 sonicator for ten minutes to generate DNA fragments between ˜200-1000 base pairs (bp). After clarification of insoluble material by centrifugation, the chromatin was immunoprecipitated overnight at 4° C. with antibodies against Foxp3, Smarca4, Brd9, Phf10 or H3K27ac. […]
Single-end 50 bp or paired-end 42 bp reads were aligned to mouse genome mm10 using STAR alignment tool (V2.5) (Dobin et al., Bioinformatics 29:15-21, 2013). […]

[1] = test system: MC38 colorectal tumor cell line; assay: Adoptive T cell transfer and MC38 tumor model; format: in vivo, mouse
Text: Similar to the “Adoptive T cells transfer-induced colitis model,” Treg cells were activated in vitro and transduced with pSIRG-GFP expressing sgNT or sgBrd9. Four days after transduction, the GFP+ transduced Treg were FACS sorted. Concurrently, Treg depleted CD4 and CD8 T cells isolated from Rosa-Cas9/Foxp3^Thy1.1 mice were used as effector T cells. A total of 1 million pSIRG-sgRNA transduced GFP+ Treg cells, 1 million effector CD8 T cells, and 2 million Treg-depleted CD4 T cells were mixed and transferred into Rag1^−/− recipient mice. On the following day, mice were implanted with 0.5 million MC38 cells by subcutaneous injection on the flank of mouse. When palpable tumor appeared, tumor size was measured every two day by electronic calipers. At the end point, spleen and tumor were collected for immune profiling. For tumor processing, tumor tissues were minced into small pieces and digested with 0.5 mg/mL Collagenase IV (Sigma #C5138) and DNAase I (Roche #4716728001) for 20 minutes and passed through […] cell strainer to collect single cell suspension. Isolated cells were stimulated with PMA/Ionomycin and GolgiPlug™ for 5 hours, and then were subjected to Foxp3 and cytokines staining with eBioscience® Fix/Perm buffer (eBioscience #00-5523-00).

[2] = transferred Treg population, vs sgNT

## sgBrd9: sgRNA targeting Brd9, ATTAACCGGTTTCTCCCGGG (SEQ ID NO: 12) (expressed or natural sequence)
H3K27ac
  H3K27ac at Brd9-dependent Foxp3 sites: reduction in H3K27ac
[1]; Rag1^−/− mice receiving sgRNA transduced Treg cells vs sgNT Treg cells
  tumor growth: significantly slower
[1]; relative to sgNT Treg cells
  percentage of transferred Treg cells: reduced
[1]; [2]
  GFP^+Foxp3^− ex-Treg population: increase
  percentage of ex-Treg cells producing IFN-γ: higher percentage
[1]; tumor and spleen, sgBrd9 versus sgNT
  increase in the ratio of CD8 T cells to Treg cells: 2-3 fold
[1]; vs sgNT Treg cells
  CD4 and CD8 T cell tumor infiltration: significantly increased
[1]; vs sgNT Treg condition
  percentage of IFN-γ producing intra-tumor CD4 and CD8 T cells: significantly greater
